This note sets out measurements from patent US9187472B2 (AbbVie Inc., priority 2012, dated 2015).

SMILES strings stand for the structures.

For one test, the target named is NAMPT (Homo sapiens, UniProt P43490). The experiment in a line: TR-FRET Binding Assay of NAMPT with PRPP. As to conditions: with 200 μM PRPP and 2.5 mM ATP; 2 nM NAMPT, 2 nM probe, 16 hours equilibration. A digest of the protocol:
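Compounds were mixed with 2 nM His-tagged NAMPT, 2 nM probe, 1 nM terbium anti-His antibody, 200 μM PRPP and 2.5 mM ATP in assay buffer with 2% DMSO, then left 16 hours to permit possible enzymatic processing of compounds before time-resolved FRET was measured.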

For test [1], the target named is NAMPT (human, recombinant, C-terminally His-tagged) (Homo sapiens, UniProt P43490). The experiment in a line: Time-Resolved Fluorescence Resonance Energy Transfer (TR-FRET) Binding Assay of NAMPT. As to conditions: without substrates; 6.8 nM NAMPT, 200 nM probe, 3 hours equilibration. A digest of the protocol: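 Compounds, diluted in half-log steps, are mixed with enzyme (6.8 nM), fluorescent probe (200 nM) and Tb-anti-His antibody (1 nM) in pH 7.5 HEPES buffer containing 10 mM MgCl2 and 1 mM DTT. Plates equilibrate 3 h at room temperature; normalized FRET ratios are fitted by four-parameter logistic regression for IC50.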

For the next test, the system named is PC3 cells. The test can be described thus: NAMPT Cell Proliferation Assay. It counts as cell-based. Particulars: Homo sapiens, PC-3, 120 h, 5 days incubation, cell viability by Cell Titer Glo. A digest of the protocol:
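Cell Titer Glo viability after 5-day exposure (37° C, 5% CO2); PC3, 500 cells/well, RPMI + 10% heat-inactivated FBS, overnight attachment before dosing. Dose range 10 μM to 1×10^−5 μM, 10-fold steps. IC50 = sigmoidal fit of % inhibition.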

NAMPT, sequence (P43490 whole entry): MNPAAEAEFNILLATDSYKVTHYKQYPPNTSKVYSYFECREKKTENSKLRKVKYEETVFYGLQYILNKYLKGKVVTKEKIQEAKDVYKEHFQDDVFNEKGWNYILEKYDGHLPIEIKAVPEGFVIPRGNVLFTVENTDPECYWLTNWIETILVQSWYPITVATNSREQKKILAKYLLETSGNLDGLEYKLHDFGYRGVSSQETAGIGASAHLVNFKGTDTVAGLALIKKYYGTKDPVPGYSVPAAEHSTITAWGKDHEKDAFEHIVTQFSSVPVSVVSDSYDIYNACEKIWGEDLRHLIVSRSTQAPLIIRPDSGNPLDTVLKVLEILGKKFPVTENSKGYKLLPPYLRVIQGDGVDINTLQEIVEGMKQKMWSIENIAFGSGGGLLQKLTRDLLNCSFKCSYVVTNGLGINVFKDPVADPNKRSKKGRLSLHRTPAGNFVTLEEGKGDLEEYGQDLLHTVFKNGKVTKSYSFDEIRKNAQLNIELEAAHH
NAMPT (human, recombinant, C-terminally His-tagged), sequence (P43490 whole entry): as above

Consider `O=C(NCc1ccn2ccnc2c1)Nc1ccc(O[C@@H]2CCN(C(=O)c3cc(F)cc(F)c3)C2)cc1` [Example 694, 1-(4-{[(3R)-1-(3,5-difluorobenzoyl)pyrrolidin-3-yl]oxy}phenyl)-3-(imidazo[1,2-a]pyridin-7-ylmethyl)urea], for which the IC50 on NAMPT came to 1.12 nM; in test [1], 163 nM; in the test with PC3 cells, 24.7 nM.

As for `O=C(NCc1ccn2ccnc2c1)Nc1ccc(O[C@@H]2CCN(C(=O)c3ccccc3Cl)C2)cc1` [Example 695, 1-(4-{[(3R)-1-(2-chlorobenzoyl)pyrrolidin-3-yl]oxy}phenyl)-3-(imidazo[1,2-a]pyridin-7-ylmethyl)urea], the IC50 at NAMPT worked out at 0.621 nM; in test [1], 13.7 nM; in the test with PC3 cells it was 5.82 nM.

On to `O=C(NCc1ccn2ccnc2c1)Nc1ccc(O[C@@H]2CCN(C(=O)c3ccc(Cl)cc3)C2)cc1` [Example 696, 1-(4-{[(3R)-1-(4-chlorobenzoyl)pyrrolidin-3-yl]oxy}phenyl)-3-(imidazo[1,2-a]pyridin-7-ylmethyl)urea], for which the IC50 was found to be 0.725 nM on NAMPT, 272 nM in test [1] and 667 nM in the test on PC3 cells.

Take `O=C(NCc1ccn2ccnc2c1)c1cnc(C2CCN(c3ccccn3)CC2)s1` [Example 697, N-(imidazo[1,2-a]pyridin-7-ylmethyl)-2-[1-(pyridin-2-yl)piperidin-4-yl]-1,3-thiazole-5-carboxamide]: the IC50 was 0.802 nM on NAMPT, 735 nM in test [1] and 633 nM in the test on PC3 cells.

Consider `O=C(NCc1ccn2ccnc2c1)c1ccc(-c2cnn(CC3(F)CCOCC3)c2)s1` [Example 698, 5-{1-[(4-fluorotetrahydro-2H-pyran-4-yl)methyl]-1H-pyrazol-4-yl}-N-(imidazo[1,2-a]pyridin-7-ylmethyl)thiophene-2-carboxamide], for which the figures for the IC50 (at NAMPT; in test [1]; in the test with PC3 cells) were 0.629 nM, 36.4 nM and 0.67 nM, respectively.

Turning to `O=C(NCc1ccn2ccnc2c1)c1ccc(C2CCN(C(=O)c3ccccc3Cl)CC2)cc1` [Example 699, 4-[1-(2-chlorobenzoyl)piperidin-4-yl]-N-(imidazo[1,2-a]pyridin-7-ylmethyl)benzamide], the IC50 turned out to be 0.721 nM on NAMPT, 41.1 nM in test [1] and 5.27 nM with PC3 cells.

For `O=C(NCc1ccn2ccnc2c1)c1ccc(C2CCN(C(=O)c3c(F)cccc3F)CC2)cc1` [Example 700, 4-[1-(2,6-difluorobenzoyl)piperidin-4-yl]-N-(imidazo[1,2-a]pyridin-7-ylmethyl)benzamide], the IC50 is 1.03 nM at NAMPT, 68.4 nM in test [1] and 3.25 nM in the test on PC3 cells.

Take `O=C(NCc1ccn2ccnc2c1)c1ccc(C2CCN(C(=O)c3ccc(F)c(F)c3)CC2)cc1` [Example 701, 4-[1-(3,4-difluorobenzoyl)piperidin-4-yl]-N-(imidazo[1,2-a]pyridin-7-ylmethyl)benzamide]: the IC50 on NAMPT was found to be 0.856 nM; in test [1], 367 nM; in the test on PC3 cells, 76.2 nM.

For `O=C(NCc1ccn2ccnc2c1)c1ccc(C2CCN(C(=O)c3cccc(C(F)(F)F)c3)CC2)cc1` [Example 702, N-(imidazo[1,2-a]pyridin-7-ylmethyl)-4-{1-[3-(trifluoromethyl)benzoyl]piperidin-4-yl}benzamide], the values for the IC50 (on NAMPT; in test [1]; in the test with PC3 cells) were 1.29 nM, 568 nM and 88 nM, respectively.

Turning to `O=C(NCc1ccn2ccnc2c1)c1ccc(C2CCN(C(=O)c3cccc(OC(F)(F)F)c3)CC2)cc1` [Example 703, N-(imidazo[1,2-a]pyridin-7-ylmethyl)-4-{1-[3-(trifluoromethoxy)benzoyl]piperidin-4-yl}benzamide], the IC50 at NAMPT was 0.824 nM; in test [1], 559 nM; with PC3 cells, 90.3 nM.

Turning to `O=C(NCc1ccn2ccnc2c1)c1ccc(C2CCN(C(=O)c3ccc(OC(F)(F)F)cc3)CC2)cc1` [Example 704, N-(imidazo[1,2-a]pyridin-7-ylmethyl)-4-{1-[4-(trifluoromethoxy)benzoyl]piperidin-4-yl}benzamide], the results for the IC50 (at NAMPT; in test [1]; in the test on PC3 cells) were 0.777 nM, 503 nM and 91.5 nM, respectively.
